{"source": "patent US20140220110A1", "about": "“REMOTE LOADING OF SPARINGLY WATER-SOLUBLE DRUGS INTO LIPOSOMES” (ZONEONE PHARMA, INC., priority 2013, published 2014)", "key": {"[1]": {"experiment": "Liposome size by dynamic light scattering", "assay_type": "physicochemical", "settings": "liposomes loaded with carfilzomib, before lyophilizing", "description": "(§1) The lipid concentration is determined by measuring the cholesterol by HPLC using an Agilent 1100 HPLC with and Agilent Zorbax 5 um, […], Eclipse XDB-C8 column and a mobile phase of A=0.1% TFA, B=0.1% TFA/MeOH with an isocratic elution of 99% B. The flow rate is 1.0 mL/min, column temperature is 50° C., 10 μL injection and detection by absorbance at 205 nm. The retention time of cholesterol is 4.5 min. The liposome size is measured by dynamic light scattering.\nSee Example 1, Carfilzomib liposome entrapment by remote loading for details on how the liposomes were made, purified and characterized."}, "[2]": {"experiment": "Carfilzomib solubility as a function of DMSO content (optical density at 600 nm)", "assay_type": "physicochemical", "settings": "0.2 mg/mL carfilzomib", "description": "Carfilzomib was added from a stock 10 mg/mL solution in DMSO to 1 mL of a citric acid/DMSO mixture so that the composition of DMSO was 2%, 25%, 50%, 75% and 100%. The final drug concentration was 0.2 mg/mL. The solutions were prepared and measured for optical density at 600 nm. The optical density at 600 nm is a good measure of how turbid or how much scattering material (such as drug precipitates) are in a solution, generally, the more precipitates the higher the absorbance. From FIG. 8 is apparent that at DMSO concentrations below 50% vol/vol (25° C.) and 25% vol/vol (65° C.) the drug remains in a precipitated form. Only when the concentration of DMSO is increased does it become effectively solubilized at this concentration of 0.2 mg/mL."}, "[3]": {"settings": "unencapsulated drug; Yang et al 2011; cited from earlier work"}, "[4]": {"experiment": "Remote loading of carfilzomib precipitate into liposomes (drug and lipid by HPLC after purification)", "assay_type": "physicochemical", "settings": "for efficiency of remote loading: 100 g drug/mol HSPC", "description": "Ammonium sulfate solution was prepared by dissolving ammonium sulfate solid to a final concentration of 250 mM (500 mequivilents of anion/L) no pH adjustment was made to yield a final pH of 5.6. Sodium sulfate solution (250 mM) was prepared by adding 0.35 g sodium sulfate to 10 mL deionized water.\nThe liposomes were formed by extrusion. Lipids were dissolved in ethanol at a concentration of 500 mM HSPC (591 mg/mL total lipid) at 65° C. and the 9 volumes of the trapping agent solution heated to 65° C. was added to the ethanol/lipid solution also at 65° C. The mixture was vortexed and transferred to a 10 mL thermostatically controlled (65° C.) Lipex Extruder. The liposomes were formed by extruding 10 times through polycarbonate membranes having 0.1 um pores. After extrusion the liposomes were cooled on ice. The transmembrane electrochemical gradient was formed by purification of the liposomes by dialysis in dialysis tubing having a molecular weight cut off of 12,000-14,000. The samples are dialyzed against 5 mM HEPES, 10% sucrose pH 6.5 (stirring at 4° C.) at volume that is 100 fold greater than the sample volume. The dialysate was changed after 2 h then 4 more times after 12 h each. The conductivity of the liposome solution was measured and was indistinguishable from the dialysis medium ˜40 μS/cm.\nas §1\nCarfilzomib (Selleck Chemicals) was dissolved in DMSO at a concentration of 10 mg/mL. The carfilzomib was introduced to the liposomes at a carfilzomib to HSPC ratio of 100 g drug/mol HSPC (drug to total lipid ratio (wt/wt) of 0.12). The liposomes were diluted with 50 mM citrate, 10% sucrose pH 4.0 to increase the volume to a point where after addition of the drug the final DMSO concentration is 2%. The carfilzomib/DMSO was added to the diluted liposomes, which were mixed at room temperature then transferred to a 65° C. bath and swirled every 30 s for the first 3 min and then swirled every 5 min over a total heating time of 30 min. All samples were very cloudy when the drug was added and all became clear (same as liposomes with no drug added) after 15 min. After heating for 30 min all samples were placed on ice for 15 min. The loaded liposomes were vortexed and 100 μL of sample was kept as the “before column” and the rest transferred to microcentrifuge tubes and spun at 10,000 RPM for 5 min. The supernatants were purified on a Sephadex G25 column collected and analyzed by HPLC. The HPLC analysis of carfilzomib was performed on the same system as described for analysis of cholesterol. The mobile phase consists of A=0.1% TFA, B=0.1% TFA/MeOH with a gradient elution starting at 50% B and increasing to 83% B in 13 min with 7 min equilibration back to 50% B. The flow rate is 1.0 mL/min, column temperature is 30 C, 10 μl injection and detection by absorbance at 205 nm. The retention time of carfilzomib is 12.2 min. The lipid concentration is determined by analysis of the cholesterol by HPLC."}, "[5]": {"experiment": "Reverse gradient-directed drug release from liposomes", "assay_type": "physicochemical", "settings": "for % Carfilzomib Released: 65 C 30 min", "description": "Liposomes were loaded with carfilzomib as described in Example 1 and were purified into deionized water. The sample was divided into two aliquots. To the first aliquot, concentrated Hepes pH 7.4 and NaCl was added so that the final concentration was 5 mM Hepes, 145 mM NaCl (HBS). To the second aliquot, concentrated ammonium sulfate was added so that the final concentration was 250 mM. No obvious physical changes were initially observed. The samples were then heated at 65° C. for 30 min. The samples were transferred to clean eppendorf tubes and centrifuged for 10,000 rpm for 5 min after which the supernatants and precipitates were separated and tested for carfilzomib content by HPLC assay. Released drug precipitated, liposome encapsulated drug remained in the supernatant. The % carfilzomib released was calculated by […]"}, "[6]": {"settings": "250 mM ammonium sulfate liposomes, drug added at 100 g drug/mol HSPC"}}, "data": [{"smiles": "CC(C)C[C@H](NC(=O)[C@H](CCc1ccccc1)NC(=O)CN1CCOCC1)C(=O)N[C@@H](Cc1ccccc1)C(=O)N[C@@H](CC(C)C)C(=O)[C@@]1(C)CO1", "note": "[carfilzomib]", "values": [{"measurement": "PDI", "setting": "[1]; (NH4)2SO4, drug added quickly", "value": 0.062}, {"measurement": "Z-ave", "setting": "[1]; (NH4)2SO4, drug added quickly", "value": 108, "unit": "nm"}, {"measurement": "PDI", "setting": "[1]; (NH4)2SO4, drug added slowly", "value": 0.035}, {"measurement": "Z-ave", "setting": "[1]; (NH4)2SO4, drug added slowly", "value": 109.2, "unit": "nm"}, {"measurement": "PDI", "setting": "[1]; Mellitic Acid", "value": 0.08}, {"measurement": "Z-ave", "setting": "[1]; Mellitic Acid", "value": 105.5, "unit": "nm"}, {"measurement": "PDI", "setting": "[1]; Napthelenedisulfonic acid", "value": 0.039}, {"measurement": "Z-ave", "setting": "[1]; Napthelenedisulfonic acid", "value": 111.9, "unit": "nm"}, {"measurement": "DMSO concentration below which the drug remains in a precipitated form", "setting": "[2]; 25 C", "value": 50, "unit": "% vol/vol"}, {"measurement": "DMSO required to completely dissolve the drug", "setting": "[2]; 65 C", "value": "> 25", "unit": "% vol/vol"}, {"measurement": "t1/2 in the blood stream", "setting": "[3]", "value": "< 20", "unit": "min"}, {"measurement": "efficiency of remote loading", "setting": "[4]; 10 mg/mL DMSO solution added in 5 increments over 1 min while vortexing", "value": "96.3%±1.09%"}, {"measurement": "final drug to lipid ratio", "setting": "[4]; [6]", "value": "95.26±3.47 g drug/mol of HSPC"}, {"measurement": "loading efficiency", "setting": "[4]; [6]", "value": "95.26±3.47", "unit": "%"}, {"measurement": "final drug load", "setting": "[4]; control liposomes with 250 mM sodium sulfate (no gradient), drug added at 100 g drug/mol HSPC", "value": "33.28±0.79 g drug/mol of HSPC"}, {"measurement": "loading capacity of remote loaded liposomes over sodium sulfate liposomes", "setting": "[4]; input 100 g drug/mol HSPC", "value": "> 3", "unit": "fold"}, {"measurement": "efficiency of remote loading", "setting": "[4]; trapping agent ammonium sulfate, 10 mg/mL DMSO solution added quickly", "value": "97.0%±2.38%"}, {"measurement": "drug released with reverse gradient over control with no reverse gradient", "setting": "[5]", "value": 6.5, "unit": "fold"}, {"measurement": "% Carfilzomib Released", "setting": "[5]; 250 mM ammonium sulfate outside (reverse gradient)", "value": "68.5 ± 1.82", "unit": "%"}, {"measurement": "% Carfilzomib Released", "setting": "[5]; Hepes buffered saline (no reverse gradient)", "value": "10.6 ± 0.28", "unit": "%"}, {"measurement": "degradation of released drug (HPLC chromatogram against starting material)", "setting": "[5]; after loading and release by reverse gradient", "value": "no degradation of carfilzomib had taken place"}]}]}
